Laboratory results published in patent publication US9113629B2, “4-amino-6-(4-substituted-phenyl)-picolinates and 6-amino-2-(4-substituted-phenyl)-pyrimidine-4-carboxylates and their use as herbicides” (DOW AGROSCIENCES LLC, priority 2013, dated 2015).
Like-named read-outs stand apart in the source and are kept apart here.

Assays:
[1] = test system: Key Broadleaf Weed and Crop Species; assay: Post-emergent Test II herbicidal activity (Table 5); type: in vivo; conditions: post-emergence, 336 h, post-emergent, 14 days after application; for pest or weed control at 70 g/ha: 70 g ai/ha; for pest or weed control at 140 g/ha: 140 g ai/ha
Summary of the method: (§1)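 Test species were raised 7–21 d under greenhouse conditions until reaching the first or second true leaf, sprayed with formulated compound at 187 L/ha, and kept subirrigated to avoid wash-off. Fourteen days later, damage was rated visually on a 0–100% scale against untreated plants.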

[2] = test system: Key Grass and Sedge Weeds as well as Grass Crops; assay: Post-emergent Test II herbicidal activity (Table 6); type: in vivo; conditions: post-emergence, 336 h; for pest or weed control at 70 g/ha: application rate 70 g ai/ha; for pest or weed control at 140 g/ha: application rate 140 g ai/ha
Summary of the method: as §1

[3] = ABUTH: velvetleaf (Abutilon theophrasti), read-out: Visual Growth Reduction (%) 14 Days After Application ABUTH
[4] = AMARE: redroot pigweed (Amaranthus retroflexus), read-out: Visual Growth Reduction (%) 14 Days After Application AMARE
[5] = BRSNN: oilseed-rape, canola (Brassica napus), read-out: Visual Growth Reduction (%) 14 Days After Application BRSNN
[6] = CHEAL: lambsquarters (Chenopodium album), read-out: Visual Growth Reduction (%) 14 Days After Application CHEAL
[7] = EPHHL: wild poinsettia (Euphorbia heterophylla), read-out: Visual Growth Reduction (%) 14 Days After Application EPHHL
[8] = HELAN: sunflower (Helianthus annuus), read-out: Visual Growth Reduction (%) 14 Days After Application HELAN
[9] = VIOTR: wild pansy (Viola tricolor), read-out: Visual Growth Reduction (%) 14 Days After Application VIOTR
[10] = CYPES: yellow nutsedge (Cyperus esculentus), read-out: Visual Growth Reduction (%) 14 Days After Application, CYPES
[11] = DIGSA: crabgrass (Digitaria sanguinalis), read-out: Visual Growth Reduction (%) 14 Days After Application, DIGSA
[12] = ECHCG: barnyardgrass (Echinochloa crus-galli), read-out: Visual Growth Reduction (%) 14 Days After Application, ECHCG
[13] = ORYSA: rice (Oryza sativa), read-out: Visual Growth Reduction (%) 14 Days After Application, ORYSA
[14] = SETFA: giant foxtail (Setaria faberi), read-out: Visual Growth Reduction (%) 14 Days After Application, SETFA
[15] = SORVU: grain sorghum (Sorghum vulgare), read-out: Visual Growth Reduction (%) 14 Days After Application, SORVU
[16] = TRZSS (wheat, Triticum aestivum), read-out: Visual Growth Reduction (%) 14 Days After Application, TRZSS
[17] = ZEAMX: maize, corn (Zea mays), read-out: Visual Growth Reduction (%) 14 Days After Application, ZEAMX

- melting point: 170.1 to 172.6 °C
SMILES: Nc1cc(-c2c(F)cc(I)c(F)c2F)nc(C(=O)O)c1Cl [Compound 68]
- pest or weed control at 70 g/ha [1, 3]: 85 to 94%
- pest or weed control at 140 g/ha [1, 3]: 85 to 94%
- pest or weed control at 70 g/ha [1, 4]: 95 to 100%
- pest or weed control at 140 g/ha [1, 4]: 95 to 100%
- pest or weed control at 70 g/ha [1, 5]: 95 to 100%
- pest or weed control at 140 g/ha [1, 5]: 95 to 100%
- pest or weed control at 70 g/ha [1, 6]: 95 to 100%
- pest or weed control at 140 g/ha [1, 6]: 95 to 100%
- pest or weed control at 70 g/ha [1, 7]: 95 to 100%
- pest or weed control at 140 g/ha [1, 7]: 95 to 100%
- pest or weed control at 70 g/ha [1, 8]: 60 to 74%
- pest or weed control at 140 g/ha [1, 8]: 0 to 29%
- pest or weed control at 70 g/ha [1, 9]: 95 to 100%
- pest or weed control at 140 g/ha [1, 9]: 95 to 100%
- pest or weed control at 70 g/ha [2, 10]: 95 to 100%
- pest or weed control at 140 g/ha [2, 10]: 95 to 100%
- pest or weed control at 70 g/ha [2, 11]: 75 to 84%
- pest or weed control at 140 g/ha [2, 11]: 75 to 84%
- pest or weed control at 70 g/ha [2, 12]: 85 to 94%
- pest or weed control at 140 g/ha [2, 12]: 75 to 84%
- pest or weed control at 70 g/ha [2, 13]: 45 to 59%
- pest or weed control at 140 g/ha [2, 13]: 45 to 59%
- pest or weed control at 70 g/ha [2, 14]: 85 to 94%
- pest or weed control at 140 g/ha [2, 14]: 75 to 84%
- pest or weed control at 70 g/ha [2, 15]: 95 to 100%
- pest or weed control at 140 g/ha [2, 15]: 95 to 100%
- pest or weed control at 70 g/ha [2, 16]: 30 to 44%
- pest or weed control at 140 g/ha [2, 16]: 45 to 59%
- pest or weed control at 70 g/ha [2, 17]: 0 to 29%
- pest or weed control at 140 g/ha [2, 17]: 75 to 84%
